Experiment [1] has as its target T1, interaction of K-Ras with RGL2 (Homo sapiens, UniProt O15211).
T1 construct: expressed in transfected cells; host or cells: HEK-293
T1 sequence (O15211 1-777): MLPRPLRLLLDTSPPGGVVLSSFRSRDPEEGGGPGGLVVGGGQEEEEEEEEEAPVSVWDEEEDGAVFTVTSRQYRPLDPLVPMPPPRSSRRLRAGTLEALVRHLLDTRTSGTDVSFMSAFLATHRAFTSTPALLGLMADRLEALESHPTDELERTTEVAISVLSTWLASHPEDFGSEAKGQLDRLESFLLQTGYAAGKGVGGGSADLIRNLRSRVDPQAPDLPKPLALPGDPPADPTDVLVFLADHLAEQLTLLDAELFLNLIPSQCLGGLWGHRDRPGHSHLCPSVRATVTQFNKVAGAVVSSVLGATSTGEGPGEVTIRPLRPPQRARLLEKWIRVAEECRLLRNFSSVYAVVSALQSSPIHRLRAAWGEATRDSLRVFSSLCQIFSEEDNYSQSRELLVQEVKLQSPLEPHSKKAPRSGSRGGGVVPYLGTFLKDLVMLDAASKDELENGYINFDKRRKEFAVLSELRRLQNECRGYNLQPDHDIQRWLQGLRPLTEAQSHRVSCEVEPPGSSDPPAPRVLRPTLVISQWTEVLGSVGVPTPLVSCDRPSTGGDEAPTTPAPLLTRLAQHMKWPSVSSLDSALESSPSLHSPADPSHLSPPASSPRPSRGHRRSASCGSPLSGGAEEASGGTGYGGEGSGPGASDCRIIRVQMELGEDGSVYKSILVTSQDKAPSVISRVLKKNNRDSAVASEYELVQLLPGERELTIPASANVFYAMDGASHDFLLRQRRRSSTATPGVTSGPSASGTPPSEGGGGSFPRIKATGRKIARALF
The experiment is described as follows: Ras/RalGEF binding, immunoprecipitation and immunoblot from co-transfected HEK-293 cells. The conditions noted are these: 10 μM, HA K-Ras 12v and GFP-RGL2, IP/IB, FIG. 3B. Background: In western blotting, separated proteins are transferred to a membrane and probed.

Experiment [2] has as its system MiaPaCa-2. The experiment is described as follows: Soft agar colony formation. The class given is cell-based, human. As to conditions: 10 μM. Details: Colonies in agar: unit not given here. The procedure: FIG. 1. Effects of some compounds of Formula (I) on RalGEF inhibitor on soft agar growth and normal growth in 2D of pancreatic carcinoma cell lines. In FIGS. 1A and 1B, Panc-1 (ATCC® CRL-1469™) and MiaPaCa-2 (ATCC® CRL-1420™) mutant Ras containing pancreatic tumor cell lines were plated in soft agar in the presence of 10 μM or 0.9 μM of compound I-1 and scored for the formation of colonies. In FIGS. 1C and 1D, compound I-1 was then tested for the ability to inhibit cell growth on the same cell lines under normal 2D growth conditions on plastic. “0” is the carrier. Cells were seeded at the same density and scored after two weeks in culture.
Human pancreatic tumor cell lines MiaPaca-2 and Panc-1 contain activated K-Ras and were used in the initial screen to identify compound I-1. Soft agar colony formation remains an established in vitro assay to predict tumorigenicity and was used to predict tumorigenicity for compound I-1.
Several other compounds were tested against the Mia Paca-2 cell line using the soft agar colony formation in vitro assay in two experiments. For each table, DMSO was used as a control and, as such, within each table, the DMSO colonies are the measure against which each measurement in the corresponding table is compared.

Where [3] appears, read: Table 2 experiment, DMSO control 182 ± 7 colonies.
Setting [4] is: Table 3 experiment, DMSO control 1686 ± 114 colonies.

On to `COc1cccc(CNc2nc(CN(C)Cc3cccc(OC)c3)nc3ccccc23)c1` [Compound I-2, N-(3-Methoxybenzyl)-2-(((3-methoxybenzyl)(methyl)amino)methyl)quinazolin-4-amine], for which, in experiment [1], the “inhibition of RGL2 (Ras/RGL2 interaction)” value is “found to inhibit RGL2”.

In the case of `COc1cccc(CN(C)Cc2nc(NC(C)c3ccccc3)c3c(C)c(C)sc3n2)c1` (stereo not shown) [Compound I-26], the Colonies in agar in experiment [2] (setting [3]) is 0 ± 0.

In experiment [2] (setting [3]), `COc1cccc(CN(C)Cc2nc(NCc3cccc(Cl)c3)c3c(C)c(C)sc3n2)c1` [Compound I-27] had a Colonies in agar of 51 ± 9.

Compound `COc1cccc(CN(C)Cc2nc(NCc3cccc(F)c3)c3c(C)c(C)sc3n2)c1` [Compound I-28] showed a Colonies in agar in experiment [2] (setting [3]) of 54 ± 5.

For the compound `COc1cccc(CNc2nc(CN(C)Cc3cccc(C)c3)nc3sc(C)c(C)c23)c1` [Compound I-29], the Colonies in agar in experiment [2] (setting [3]) was found to be 0 ± 0.

`COc1cccc(CNc2nc(CN(C)Cc3cccc(OC)c3)nc3scc(C)c23)c1` [Compound I-30]: the Colonies in agar in experiment [2] (setting [3]) is listed as 14 ± 2.

As to `CCc1cc2c(NCc3cccc(OC)c3)nc(CN(C)Cc3cccc(OC)c3)nc2s1` [Compound I-31], in experiment [2] (setting [3]), the Colonies in agar was found to be 14 ± 1.

As to `COc1cccc(CNc2nc(CN(C)Cc3cccc(OC)c3)nc3sccc23)c1` [Compound I-32], the Colonies in agar in experiment [2] (setting [3]) turned out to be 36 ± 1.

In experiment [2] (setting [3]), `COc1cccc(CNc2nc(CN(C)Cc3cccc(OC)c3)nc3c2c(C)c(C)[s+]3[O-])c1` (stereo not shown) [Compound I-33] registered a Colonies in agar of 186 ± 4.

For the compound `COc1cccc(CN(C)Cc2nc(NCc3ccccc3OC)c3c(C)c(C)sc3n2)c1` [Compound I-43], the Colonies in agar in experiment [2] (setting [4]) amounted to 272 ± 40.

In experiment [2] (setting [4]), `COc1cccc(CNc2nc(CN(C)Cc3cccc(OC)c3)nc3sc4c(c23)CCC4)c1` [Compound I-45] registered a Colonies in agar of 361 ± 49.

Consider `COc1cccc(CN(C)Cc2nc(NCc3ccccc3)c3c(C)c(C)sc3n2)c1` [Compound I-46], for which, in experiment [2] (setting [4]), the Colonies in agar came to 320 ± 22.

Regarding `COc1cccc(CNc2nc(CN(C)Cc3ccccc3)nc3sc(C)c(C)c23)c1` [Compound I-54], the Colonies in agar in experiment [2] (setting [4]) was 410 ± 31.
